Values joined by “and” are separate entries in the source; they are usually repeats but may differ in a detail not shown here. Identical values can stand only once.
Tested on: Swiss mice, Sarcoma 180 sc, mean tumor weight T/C
Assay: NCI In Vivo Anticancer Drug Screen. Data for tumor model Sarcoma 180 (subcutaneous) in Swiss mice
Conditions: endpoint: mean tumor weight, higher = larger tumour
Summary of the method: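 Tumor-bearing mice, transplantable tumor; readout survival or tumor size; result = T/C, treated vs vehicle control.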

[1] = dose: 250.0 mg/kg/injection, schedule: Q01DX007 (ip), vehicle: carboxymethylcellulose (CMC)
[2] = dose: 100.0 mg/kg/injection, schedule: Q01DX007 (ip), vehicle: saline

With `CC(=O)[C@H]1[C@H](C)C[C@H]2[C@@H]3CCC4=CC(=O)CC[C@]4(C)[C@@]3(F)[C@@H](O)C[C@@]21C` the T/C (dose: 3.0 mg/kg/injection, schedule: Q01DX007 (sc), vehicle: steriod suspending solution) was 87 % of control, the T/C (dose: 6.1 mg/kg/injection, schedule: Q01DX007 (sc), vehicle: steriod suspending solution) was 63 % of control and the T/C (dose: 12.5 mg/kg/injection, schedule: Q01DX007 (sc), vehicle: steriod suspending solution) was 47 % of control. The T/C (dose: 25.0 mg/kg/injection, schedule: Q01DX007 (sc), vehicle: steriod suspending solution) was 44 % of control, the T/C (dose: 47.0 mg/kg/injection, schedule: Q01DX007 (sc), vehicle: steriod suspending solution) was 13 % of control and the T/C (dose: 94.0 mg/kg/injection, schedule: Q01DX007 (sc), vehicle: steriod suspending solution) was 26 % of control. For the same compound, the T/C (dose: 187.5 mg/kg/injection, schedule: Q#A X014 (sc), vehicle: steriod suspending solution) was 29 % of control and 31 % of control and 33 % of control, the T/C (dose: 281.25 mg/kg/injection, schedule: Q#A X014 (sc), vehicle: steriod suspending solution) was 22 % of control and 28 % of control and 42 % of control and the T/C (dose: 500.0 mg/kg/injection, schedule: Q01DX007 (sc), vehicle: steriod suspending solution) was 25 % of control. The T/C (dose: 562.0 mg/kg/injection, schedule: Q01DX007 (sc), vehicle: steriod suspending solution) was 36 % of control, the T/C (dose: 600.0 mg/kg/injection, schedule: Q01DX007 (sc), vehicle: steriod suspending solution) was 20 % of control and the T/C (dose: 700.0 mg/kg/injection, schedule: Q01DX007 (sc), vehicle: steriod suspending solution) was 28 % of control. For the same compound, the T/C (dose: 800.0 mg/kg/injection, schedule: Q01DX007 (sc), vehicle: steriod suspending solution) was 16 % of control, the T/C (dose: 843.0 mg/kg/injection, schedule: Q01DX007 (sc), vehicle: steriod suspending solution) was 21 % of control and the T/C (dose: 1265.0 mg/kg/injection, schedule: Q01DX007 (sc), vehicle: steriod suspending solution) was 29 % of control. For the same compound, the T/C (dose: 1890.0 mg/kg/injection, schedule: Q01DX007 (sc), vehicle: steriod suspending solution) was 24 % of control.

With `COc1ccccc1NC(=O)CSC(N)=O` the T/C (dose: 110.0 mg/kg/injection, schedule: Q01DX007 (ip), vehicle: carboxymethylcellulose (CMC)) was 78 % of control, the T/C (dose: 165.0 mg/kg/injection, schedule: Q01DX007 (ip), vehicle: carboxymethylcellulose (CMC)) was 74 % of control and the T/C [1] was 61 % of control. For the same compound, the T/C (dose: 375.0 mg/kg/injection, schedule: Q01DX007 (ip), vehicle: carboxymethylcellulose (CMC)) was 28 % of control.

With `NC1(C(=O)O)CCCC1` the T/C (dose: 4.62 mg/kg/injection, schedule: Q#A X014 (ip), vehicle: carboxymethylcellulose (CMC)) was 86 % of control, the T/C (dose: 6.25 mg/kg/injection, schedule: Q#A X014 (ip), vehicle: carboxymethylcellulose (CMC)) was 72 % of control and the T/C (dose: 9.25 mg/kg/injection, schedule: Q#A X014 (ip), vehicle: carboxymethylcellulose (CMC)) was 101 % of control. For the same compound, the T/C (dose: 12.5 mg/kg/injection, schedule: Q#A X014 (ip), vehicle: carboxymethylcellulose (CMC)) was 101 % of control, the T/C (dose: 15.0 mg/kg/injection, schedule: Q01DX007 (ip), vehicle: water) was 75 % of control and the T/C (dose: 18.5 mg/kg/injection, schedule: Q#A X014 (ip), vehicle: carboxymethylcellulose (CMC)) was 77 % of control. The T/C (dose: 25.0 mg/kg/injection, schedule: Q01DX007 (ip), vehicle: saline) was 75 % of control, the T/C (dose: 25.0 mg/kg/injection, schedule: Q#A X014 (ip), vehicle: carboxymethylcellulose (CMC)) was 75 % of control and the T/C (dose: 30.0 mg/kg/injection, schedule: Q01DX007 (ip), vehicle: water) was 78 % of control. For the same compound, the T/C (dose: 33.0 mg/kg/injection, schedule: Q#A X014 (ip), vehicle: saline) was 56 % of control, the T/C (dose: 37.0 mg/kg/injection, schedule: Q#A X014 (ip), vehicle: carboxymethylcellulose (CMC)) was 50 % of control and the T/C (dose: 50.0 mg/kg/injection, schedule: Q01DX007 (ip), vehicle: saline) was 64 % of control. The T/C (dose: 50.0 mg/kg/injection, schedule: Q#A X014 (ip), vehicle: carboxymethylcellulose (CMC)) was 35 % of control, the T/C (dose: 50.0 mg/kg/injection, schedule: Q#A X014 (ip), vehicle: saline) was 44 % of control and the T/C (dose: 60.0 mg/kg/injection, schedule: Q01DX007 (ip), vehicle: water) was 35 % of control. For the same compound, the T/C (dose: 62.0 mg/kg/injection, schedule: Q01DX007 (ip), vehicle: saline) was 61 % of control, the T/C (dose: 75.0 mg/kg/injection, schedule: Q#A X014 (ip), vehicle: saline) was 23 % of control and the T/C [2] was 47 % of control. For the same compound, the T/C (dose: 120.0 mg/kg/injection, schedule: Q01DX007 (ip), vehicle: water) was 22 % of control, the T/C (dose: 125.0 mg/kg/injection, schedule: Q01DX007 (ip), vehicle: saline) was 30 % of control and the T/C (dose: 200.0 mg/kg/injection, schedule: Q01DX007 (ip), vehicle: saline) was 22 % of control.

With `COc1cc2c3c(c4ccc(OC)c(OC)c4c2cc1OC)CN1CCC[C@@H]1C3` the T/C (dose: 12.0 mg/kg/injection, schedule: Q01DX007 (ip), vehicle: water) was 21 % of control.

`NNC(=O)CCC(N)C(=O)O` (centres undefined) was tested, and the T/C (dose: 5.75 mg/kg/injection, schedule: Q#A X014 (ip), vehicle: carboxymethylcellulose (CMC)) was 97 % of control, the T/C (dose: 11.5 mg/kg/injection, schedule: Q#A X014 (ip), vehicle: carboxymethylcellulose (CMC)) was 90 % of control and the T/C (dose: 23.0 mg/kg/injection, schedule: Q#A X014 (ip), vehicle: carboxymethylcellulose (CMC)) was 118 % of control. For the same compound, the T/C (dose: 46.0 mg/kg/injection, schedule: Q#A X014 (ip), vehicle: carboxymethylcellulose (CMC)) was 70 % of control.

`CN(C)NCCC#N` was tested, and the T/C (dose: 15.0 mg/kg/injection, schedule: Q#A X014 (ip), vehicle: methylcellulose (MC)) was 91 % of control, the T/C (dose: 22.5 mg/kg/injection, schedule: Q#A X014 (ip), vehicle: methylcellulose (MC)) was 52 % of control and the T/C (dose: 33.5 mg/kg/injection, schedule: Q#A X014 (ip), vehicle: methylcellulose (MC)) was 49 % of control. The T/C (dose: 50.0 mg/kg/injection, schedule: Q#A X014 (ip), vehicle: methylcellulose (MC)) was 39 % of control.

`Fc1ccc(NC(=S)Nc2cc(Cl)cc(Cl)c2)cc1` was tested, and the T/C (dose: 15.0 mg/kg/injection, schedule: Q01DX007 (ip), vehicle: carboxymethylcellulose (CMC)) was 115 % of control and the T/C (dose: 30.0 mg/kg/injection, schedule: Q01DX007 (ip), vehicle: carboxymethylcellulose (CMC)) was 117 % of control.

In the case of `c1ccc2nc3c(nc2c1)[nH]c1ccccc13`, the T/C (dose: 62.5 mg/kg/injection, schedule: Q01DX007 (ip), vehicle: carboxymethylcellulose (CMC)) is reported as 76 % of control, the T/C (dose: 125.0 mg/kg/injection, schedule: Q01DX007 (ip), vehicle: carboxymethylcellulose (CMC)) is reported as 67 % of control and the T/C [1] is reported as 114 % of control.

With `CN(C)[C@@H]1C(=O)C(C(=O)NCNC(CO)(CO)CO)=C(O)[C@@]2(O)C(=O)C3=C(O)c4c(O)cccc4[C@@](C)(O)[C@H]3C[C@@H]12` the T/C (dose: 55.0 mg/kg/injection, schedule: Q#A X014 (ip), vehicle: saline) was 65 % of control, the T/C (dose: 83.0 mg/kg/injection, schedule: Q#A X014 (ip), vehicle: saline) was 93 % of control and the T/C (dose: 100.0 mg/kg/injection, schedule: Q01DX007 (ip), vehicle: methylcellulose (MC)) was 83 % of control. The T/C [2] was 119 % of control, the T/C (dose: 125.0 mg/kg/injection, schedule: Q#A X014 (ip), vehicle: saline) was 52 % of control and the T/C (dose: 140.0 mg/kg/injection, schedule: Q01DX007 (ip), vehicle: methylcellulose (MC)) was 62 % of control. For the same compound, the T/C (dose: 140.0 mg/kg/injection, schedule: Q01DX007 (ip), vehicle: saline) was 83 % of control, the T/C (dose: 210.0 mg/kg/injection, schedule: Q01DX007 (ip), vehicle: methylcellulose (MC)) was 38 % of control and the T/C (dose: 210.0 mg/kg/injection, schedule: Q01DX007 (ip), vehicle: other) was 86 % of control. For the same compound, the T/C (dose: 210.0 mg/kg/injection, schedule: Q01DX007 (ip), vehicle: saline) was 65 % of control and the T/C (dose: 320.0 mg/kg/injection, schedule: Q01DX007 (ip), vehicle: methylcellulose (MC)) was 33 % of control.

`O=CC1CO1` (centres undefined) was tested, and the T/C (dose: 50.0 mg/kg/injection, schedule: Q01DX007 (ip), vehicle: carboxymethylcellulose (CMC)) was 123 % of control.

For `NC(=O)Nc1n[se]nc1C(=O)O`, the T/C (dose: 20.0 mg/kg/injection, schedule: Q01DX007 (ip), vehicle: saline) was 111 % of control and the T/C (dose: 30.0 mg/kg/injection, schedule: Q01DX007 (ip), vehicle: saline) was 75 % of control.

In the case of `NCC(O)c1ccc(O)c(O)c1` (centres undefined), the T/C (dose: 3.1 mg/kg/injection, schedule: Q01DX007 (ip), vehicle: saline) is reported as 84 % of control and the T/C (dose: 12.5 mg/kg/injection, schedule: Q01DX007 (ip), vehicle: saline) is reported as 57 % of control and 77 % of control.

In the case of `O=c1cn[nH]c(=O)[nH]1`, the T/C (dose: 62.5 mg/kg/injection, schedule: Q#A X014 (ip), vehicle: carboxymethylcellulose (CMC)) is reported as 103 % of control, the T/C (dose: 125.0 mg/kg/injection, schedule: Q#A X014 (ip), vehicle: carboxymethylcellulose (CMC)) is reported as 77 % of control and the T/C (dose: 250.0 mg/kg/injection, schedule: Q#A X014 (ip), vehicle: carboxymethylcellulose (CMC)) is reported as 73 % of control. The T/C (dose: 500.0 mg/kg/injection, schedule: Q#A X014 (ip), vehicle: carboxymethylcellulose (CMC)) was 45 % of control.

`CN(C)C1=C(Cl)C(=O)C(=O)c2cccnc21` was tested, and the T/C (dose: 6.25 mg/kg/injection, schedule: Q01DX007 (ip), vehicle: water) was 89 % of control and the T/C (dose: 12.5 mg/kg/injection, schedule: Q01DX007 (ip), vehicle: water) was 81 % of control.

`CCOC(=O)C(N)CC(C)C` (centres undefined) was tested, and the T/C [1] was 101 % of control and the T/C (dose: 500.0 mg/kg/injection, schedule: Q01DX007 (ip), vehicle: carboxymethylcellulose (CMC)) was 120 % of control.

Reference: PubChem BioAssay AID342 (DTP/NCI, 2004)
